Test results: ChEMBL document CHEMBL1201862, “PubChem BioAssay data set” (2004)
Activity calls are given as the source filed them.

Legend:
[1] = HEp-2 cell cytotoxicity, dose response, cytotoxicity control for RSV inhibitor project, HTS (AID 2410); assay type: functional; conditions: human respiratory syncytial virus
[2] = Luminescence-based dose response cell-based high throughput screening assay for cytotoxic compounds using the IEC-6 intestinal epithelial cell line. [Related pubchem assays: 1858 (Summary AID.), 1825 (Counterscreen.), 1907 (Confirmation screen.)]; assay type: functional
[3] = inhibitors of intracellular T. cruzi replication, confirmation, NIH3T3 host cells, beta-gal luminescence (AID 2044); assay type: functional, cell-based;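 also: intracellular parasites grown in NIH/3T3 mouse fibroblasts as host cells; luminescent beta-galactosidase reporter signal from transgenic T. cruzi replicating inside host cells; inhibitors lower the luminescence signal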
[4] = cytotoxicity toward NIH3T3 fibroblasts, dose response, counter-screen, cell-based, ATP luminescence, mouse fibroblasts (AID 2010); assay type: functional;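 also: cells exposed to compound for about 90 hours before reading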
[5] = biological target: T1, Rac GTPase-activating protein 1 (Homo sapiens, UniProt Q9H0H5); test: MgcRacGAP GTPase-activating activity inhibitors, confirmation, biochemical, ADP Hunter fluorescence, primary and confirmatory (AID 624330); assay type: functional
T1 sequence (Q9H0H5 whole entry): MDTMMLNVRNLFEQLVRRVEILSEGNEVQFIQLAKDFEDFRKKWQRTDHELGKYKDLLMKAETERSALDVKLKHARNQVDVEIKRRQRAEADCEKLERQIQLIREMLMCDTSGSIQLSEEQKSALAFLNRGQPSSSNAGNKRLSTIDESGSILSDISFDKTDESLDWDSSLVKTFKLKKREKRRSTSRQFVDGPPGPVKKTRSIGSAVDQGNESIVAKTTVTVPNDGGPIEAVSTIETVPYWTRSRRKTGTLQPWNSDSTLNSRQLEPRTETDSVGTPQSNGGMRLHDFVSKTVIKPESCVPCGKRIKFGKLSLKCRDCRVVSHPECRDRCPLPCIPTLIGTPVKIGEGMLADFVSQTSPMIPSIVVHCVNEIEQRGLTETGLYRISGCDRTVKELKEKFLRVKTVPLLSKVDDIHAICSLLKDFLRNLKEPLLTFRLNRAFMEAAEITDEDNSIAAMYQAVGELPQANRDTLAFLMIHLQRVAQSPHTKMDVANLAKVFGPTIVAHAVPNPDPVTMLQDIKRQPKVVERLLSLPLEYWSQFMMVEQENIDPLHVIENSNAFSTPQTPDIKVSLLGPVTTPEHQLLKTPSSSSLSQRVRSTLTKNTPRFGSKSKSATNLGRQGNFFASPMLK

[6] = biological target: Sphingosine 1-phosphate receptor 2 (Homo sapiens, UniProt O95136); test: Dose Response Cell-Based Assay for Agonists of the Sphingosine 1-Phosphate Receptor 2 (S1P2): Purchased Analogues. [Related pubchem assays: 1192, 373, 439 ]; assay type: functional
[7] = biological target: Sphingosine 1-phosphate receptor 3 (Homo sapiens, UniProt Q99500); test: Dose Response Cell-Based Assay for Agonists of the Sphingosine 1-Phosphate Receptor 3 (S1P3): Purchased Analogues. [Related pubchem assays: 373, 439 ]; assay type: functional
[8] = biological target: Sphingosine 1-phosphate receptor 1 (Homo sapiens, UniProt P21453); test: Dose Response Cell-Based Assay for Agonists of the Sphingosine 1-Phosphate Receptor 1 (S1P1): Purchased Analogues. [Related pubchem assays: 1192, 373, 439 ]; assay type: functional
[9] = biological target: Luciferin 4-monooxygenase (Photinus pyralis, UniProt P08659); test: Counter Screen for Luciferase-based Assay Positives. [Related pubchem assays: 620, 618, 411 ]
[10] = biological target: T2, DNA repair and recombination protein RAD54-like (Homo sapiens, UniProt Q92698); test: inhibitors of human RAD54 branch migration, confirmation, biochemical, fluorescence, cherry-picked samples, dose series (AID 651657); assay type: functional
T2 sequence (Q92698 whole entry): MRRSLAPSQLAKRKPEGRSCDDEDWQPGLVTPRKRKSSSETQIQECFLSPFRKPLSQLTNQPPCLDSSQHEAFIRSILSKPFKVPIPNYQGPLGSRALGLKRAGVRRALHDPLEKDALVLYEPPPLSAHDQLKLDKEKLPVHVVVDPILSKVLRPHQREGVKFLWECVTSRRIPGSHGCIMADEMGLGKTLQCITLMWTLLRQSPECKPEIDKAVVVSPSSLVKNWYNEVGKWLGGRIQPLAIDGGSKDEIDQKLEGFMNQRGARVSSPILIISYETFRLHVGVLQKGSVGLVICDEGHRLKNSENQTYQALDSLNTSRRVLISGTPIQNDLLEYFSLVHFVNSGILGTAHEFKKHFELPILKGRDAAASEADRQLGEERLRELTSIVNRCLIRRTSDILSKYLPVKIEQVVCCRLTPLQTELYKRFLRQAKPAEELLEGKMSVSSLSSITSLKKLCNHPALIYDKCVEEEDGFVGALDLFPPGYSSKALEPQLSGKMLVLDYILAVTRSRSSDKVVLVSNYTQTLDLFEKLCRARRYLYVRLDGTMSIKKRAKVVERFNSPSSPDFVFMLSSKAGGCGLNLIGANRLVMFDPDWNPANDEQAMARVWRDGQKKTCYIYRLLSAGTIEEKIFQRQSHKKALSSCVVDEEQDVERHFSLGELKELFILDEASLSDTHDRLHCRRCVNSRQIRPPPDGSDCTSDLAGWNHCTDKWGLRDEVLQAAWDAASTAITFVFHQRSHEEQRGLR

Estrogen receptor = biological target: T3, Estrogen receptor (Homo sapiens, UniProt P03372); test: ERα–SRC-3 coactivator interaction inhibitors, confirmation, orthogonal assay, biochemical, ELISA, streptavidin-HRP readout (AID 1079)
T3 sequence (P03372 whole entry): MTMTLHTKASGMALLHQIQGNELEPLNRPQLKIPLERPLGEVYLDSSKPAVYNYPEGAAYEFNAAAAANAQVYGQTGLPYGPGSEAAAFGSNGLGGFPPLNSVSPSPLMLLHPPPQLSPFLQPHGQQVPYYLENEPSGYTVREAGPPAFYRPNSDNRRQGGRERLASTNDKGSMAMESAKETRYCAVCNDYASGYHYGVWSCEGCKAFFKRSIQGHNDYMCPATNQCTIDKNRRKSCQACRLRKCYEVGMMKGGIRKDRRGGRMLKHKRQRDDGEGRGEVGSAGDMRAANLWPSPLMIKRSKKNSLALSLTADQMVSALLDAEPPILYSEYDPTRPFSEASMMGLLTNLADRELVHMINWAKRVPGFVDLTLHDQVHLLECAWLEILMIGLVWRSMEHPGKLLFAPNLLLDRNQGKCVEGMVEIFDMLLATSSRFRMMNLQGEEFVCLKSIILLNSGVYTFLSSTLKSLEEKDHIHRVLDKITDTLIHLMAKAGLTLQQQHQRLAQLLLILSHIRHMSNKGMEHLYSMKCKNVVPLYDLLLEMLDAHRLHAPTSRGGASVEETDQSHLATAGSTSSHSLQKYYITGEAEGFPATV

[11] = biological target: T4, Oxysterols receptor LXR-beta (Homo sapiens, UniProt P55055); assay type: functional, cell-based;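 also: agonist activity at LXR measured by a cell-based luminescence readout across a dose range, run as a counterscreen for daf-12 agonists; HEK293 cells with Gal4-LXR fusion and GAL4-driven luciferase reporter; potency for activation of Gal4-LXR reporter so compounds are agonists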
T4 sequence (P55055 whole entry): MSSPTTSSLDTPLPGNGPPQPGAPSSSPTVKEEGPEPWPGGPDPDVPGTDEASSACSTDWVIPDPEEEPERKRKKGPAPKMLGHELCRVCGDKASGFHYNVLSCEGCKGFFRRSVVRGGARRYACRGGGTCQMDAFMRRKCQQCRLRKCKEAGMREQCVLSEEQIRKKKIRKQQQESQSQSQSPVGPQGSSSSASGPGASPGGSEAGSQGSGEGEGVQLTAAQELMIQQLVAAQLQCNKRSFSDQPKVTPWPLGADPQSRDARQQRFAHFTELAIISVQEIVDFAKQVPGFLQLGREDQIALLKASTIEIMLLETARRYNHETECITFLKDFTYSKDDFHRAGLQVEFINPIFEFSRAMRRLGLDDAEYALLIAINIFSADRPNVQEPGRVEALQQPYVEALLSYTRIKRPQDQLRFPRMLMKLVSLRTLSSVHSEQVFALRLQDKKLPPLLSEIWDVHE

[12] = biological target: Epstein-Barr nuclear antigen 1 (Epstein-Barr virus (strain B95-8) (HHV-4) (Human herpesvirus 4), UniProt P03211); test: EBNA-1 inhibitors, dose response, biochemical, fluorescence polarization, 1536-well (AID 2381); set-up: species or system human gammaherpesvirus 4;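 also: fluorescence polarization of a Cy5 DNA probe bound by EBNA-1 protein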
[13] = biological target: Lytic switch protein BZLF1 (Epstein-Barr virus (strain B95-8) (HHV-4) (Human herpesvirus 4), UniProt P03206); test: EBV ZTA inhibitors, dose response, counter-screen for EBNA-1 inhibitor project, biochemical, fluorescence polarization, Epstein-Barr virus, 1536-well (AID 2377); set-up: species or system human gammaherpesvirus 4;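 also: fluorescence polarization of Cy5-labelled ZRE DNA probe bound by purified Zta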
Beta-galactosidase [14] = biological target: T5, Beta-galactosidase (Escherichia coli, UniProt Q8VNN2); test: PubChem AID 485352; assay type: functional
Streptokinase A = biological target: T6, Streptokinase A (Streptococcus pyogenes serotype M1, UniProt P10520); test: S. pyogenes streptokinase expression inhibitors, potency, dose response, plasminogen activation absorbance, OD405 (AID 1914); assay type: functional, Streptococcus pyogenes M1 GAS;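 also: secreted streptokinase activity via plasminogen activation per viability signal from cell pellet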
T6 sequence (P10520 whole entry): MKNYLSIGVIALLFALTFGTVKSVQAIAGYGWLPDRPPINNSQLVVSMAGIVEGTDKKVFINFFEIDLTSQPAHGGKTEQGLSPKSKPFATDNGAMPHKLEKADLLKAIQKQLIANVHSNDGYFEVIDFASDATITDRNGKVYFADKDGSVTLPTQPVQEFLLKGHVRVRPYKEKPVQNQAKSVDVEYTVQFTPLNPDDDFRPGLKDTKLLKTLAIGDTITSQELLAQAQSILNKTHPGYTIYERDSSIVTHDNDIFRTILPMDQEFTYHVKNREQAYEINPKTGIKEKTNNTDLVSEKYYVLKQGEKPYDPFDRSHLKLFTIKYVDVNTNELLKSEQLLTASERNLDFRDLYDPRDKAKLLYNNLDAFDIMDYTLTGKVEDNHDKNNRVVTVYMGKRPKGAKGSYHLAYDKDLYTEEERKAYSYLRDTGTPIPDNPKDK

[15] = Luminescence Cell-Based Dose Confirmation HTS to Identify Inhibitors of Polyadenylation.; assay type: functional
[16] = A Cell Based Secondary Assay To Explore Cytotoxicity of Compounds that Sensitize Mycobacterium Tuberculosis to Beta-Lactam Antibiotics.; assay type: functional
[17] = biological target: T7, Delta-type opioid receptor (Homo sapiens, UniProt P41143); test: HTS Image-Based Screen for Agonists of the DOR Receptor. [Related pubchem assays (depositor defined):AID1777, AID1786, AID2133]; assay type: functional
Vero [18] = test: host cell cytotoxicity of antiviral hits, dose response, cytotoxicity control for West Nile virus antiviral project, secondary assay (AID 1650); assay type: functional; conditions: Chlorocebus sabaeus
Mu-type opioid receptor = Mu-type opioid receptor (Homo sapiens, UniProt P35372); test: HTS Image-Based Screen for Agonists of the MOR Receptor. [Related pubchem assays (depositor defined):AID1777, AID1785, AID1786, AID2133]; assay type: functional;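 also: imaging of beta-arrestin GFP recruitment into spots after receptor activation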
Streptococcus = test: Group A Streptococcus viability loss, dose response, counter-screen for streptokinase expression inhibitor project, luminescence, BacTiterGlo (AID 1915); assay type: functional, organism-based;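 also: potency for reduction of bacterial viability or growth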
[19] = biological target: T8, Type-1 angiotensin II receptor (Homo sapiens, UniProt P30556); test: AT1 receptor antagonists, dose response, selectivity assay for APJ receptor antagonist project, cell-based, uHTS hits (AID 463214); assay type: functional;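 also: antagonist potency against angiotensin II stimulated AT1 response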
T8 sequence (P30556 whole entry): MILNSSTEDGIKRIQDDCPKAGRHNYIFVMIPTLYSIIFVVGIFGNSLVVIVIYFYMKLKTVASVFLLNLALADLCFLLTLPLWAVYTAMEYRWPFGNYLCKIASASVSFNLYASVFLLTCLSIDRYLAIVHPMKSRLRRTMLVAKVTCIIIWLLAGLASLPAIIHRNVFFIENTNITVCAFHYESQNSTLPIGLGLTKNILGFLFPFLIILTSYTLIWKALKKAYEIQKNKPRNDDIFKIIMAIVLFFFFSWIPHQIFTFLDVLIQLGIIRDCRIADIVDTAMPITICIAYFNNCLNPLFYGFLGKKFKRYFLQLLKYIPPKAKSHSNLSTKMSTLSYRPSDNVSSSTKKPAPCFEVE

Beta-galactosidase [20] = biological target: T5, Beta-galactosidase; assay type: functional
Vero [21] = test: cells; assay type: functional; conditions: Chlorocebus sabaeus
[22] = biological target: T7, Delta-type opioid receptor; test: HTS Image-Based Screen for Antagonists of the DOR Receptor. [Related pubchem assays (depositor defined):AID1777, AID1785, AID1786, AID2133]; assay type: functional
[23] = biological target: T9, Kappa-type opioid receptor (Homo sapiens, UniProt P41145); assay type: functional
Vero [24] = test: cells; assay type: functional, cell-based; conditions: Chlorocebus sabaeus
[25] = test system: Streptococcus sp. 'group A'; test: growth inhibition of control SK(-) GAS strain, dose response, counter-screen for streptokinase expression inhibitor project, luminescence, kanamycin, BacTiterGlo, confirmation (AID 1900); assay type: functional, organism-based
[26] = biological target: T9, Kappa-type opioid receptor; assay type: functional; remark: listed apart in the source

T5 sequence (Q8VNN2 whole entry): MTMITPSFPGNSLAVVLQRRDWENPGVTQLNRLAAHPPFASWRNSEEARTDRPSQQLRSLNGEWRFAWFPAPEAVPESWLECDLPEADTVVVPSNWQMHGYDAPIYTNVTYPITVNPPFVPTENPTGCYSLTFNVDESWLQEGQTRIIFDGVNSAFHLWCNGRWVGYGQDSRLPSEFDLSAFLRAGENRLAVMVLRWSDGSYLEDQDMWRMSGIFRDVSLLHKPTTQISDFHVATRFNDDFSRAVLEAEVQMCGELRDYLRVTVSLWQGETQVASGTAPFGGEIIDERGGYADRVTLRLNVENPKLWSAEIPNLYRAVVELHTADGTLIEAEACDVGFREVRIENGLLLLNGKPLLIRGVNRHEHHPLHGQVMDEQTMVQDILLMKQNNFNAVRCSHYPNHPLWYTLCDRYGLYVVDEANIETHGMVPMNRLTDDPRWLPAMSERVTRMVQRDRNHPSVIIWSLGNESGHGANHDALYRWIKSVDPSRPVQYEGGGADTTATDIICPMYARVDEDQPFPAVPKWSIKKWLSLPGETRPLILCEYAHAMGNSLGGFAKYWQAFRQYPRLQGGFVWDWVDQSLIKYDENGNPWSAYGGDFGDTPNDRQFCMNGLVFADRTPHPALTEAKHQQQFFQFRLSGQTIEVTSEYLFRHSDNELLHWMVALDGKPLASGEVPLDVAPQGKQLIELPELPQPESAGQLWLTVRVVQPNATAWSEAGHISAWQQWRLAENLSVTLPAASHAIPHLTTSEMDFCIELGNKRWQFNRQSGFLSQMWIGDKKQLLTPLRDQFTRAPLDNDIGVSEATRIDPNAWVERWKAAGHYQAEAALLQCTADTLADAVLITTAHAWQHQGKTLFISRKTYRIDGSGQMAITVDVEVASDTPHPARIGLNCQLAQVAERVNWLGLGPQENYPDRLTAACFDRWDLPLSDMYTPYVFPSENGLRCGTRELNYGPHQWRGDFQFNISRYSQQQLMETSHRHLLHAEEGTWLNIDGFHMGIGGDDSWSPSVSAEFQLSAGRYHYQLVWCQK
T9 sequence (P41145 whole entry): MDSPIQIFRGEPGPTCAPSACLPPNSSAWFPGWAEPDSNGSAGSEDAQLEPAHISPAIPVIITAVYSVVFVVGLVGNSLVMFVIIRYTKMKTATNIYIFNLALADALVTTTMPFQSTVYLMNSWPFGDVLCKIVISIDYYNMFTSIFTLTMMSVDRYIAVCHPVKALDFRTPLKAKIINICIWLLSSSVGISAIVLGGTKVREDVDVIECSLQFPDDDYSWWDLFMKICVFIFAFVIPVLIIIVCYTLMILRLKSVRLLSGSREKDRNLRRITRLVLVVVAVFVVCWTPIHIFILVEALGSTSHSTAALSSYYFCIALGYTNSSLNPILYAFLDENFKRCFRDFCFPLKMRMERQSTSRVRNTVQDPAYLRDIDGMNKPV
T7 sequence (P41143 whole entry): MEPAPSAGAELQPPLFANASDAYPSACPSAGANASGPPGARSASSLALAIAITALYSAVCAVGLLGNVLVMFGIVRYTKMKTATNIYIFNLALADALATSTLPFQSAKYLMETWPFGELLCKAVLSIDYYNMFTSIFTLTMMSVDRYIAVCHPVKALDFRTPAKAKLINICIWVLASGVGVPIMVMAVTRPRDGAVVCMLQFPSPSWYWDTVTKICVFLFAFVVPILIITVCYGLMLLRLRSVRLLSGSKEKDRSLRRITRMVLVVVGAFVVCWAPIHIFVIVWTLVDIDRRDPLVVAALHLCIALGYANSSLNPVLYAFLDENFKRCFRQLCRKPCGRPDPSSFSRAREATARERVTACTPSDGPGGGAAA
Mu-type opioid receptor, sequence (P35372 whole entry): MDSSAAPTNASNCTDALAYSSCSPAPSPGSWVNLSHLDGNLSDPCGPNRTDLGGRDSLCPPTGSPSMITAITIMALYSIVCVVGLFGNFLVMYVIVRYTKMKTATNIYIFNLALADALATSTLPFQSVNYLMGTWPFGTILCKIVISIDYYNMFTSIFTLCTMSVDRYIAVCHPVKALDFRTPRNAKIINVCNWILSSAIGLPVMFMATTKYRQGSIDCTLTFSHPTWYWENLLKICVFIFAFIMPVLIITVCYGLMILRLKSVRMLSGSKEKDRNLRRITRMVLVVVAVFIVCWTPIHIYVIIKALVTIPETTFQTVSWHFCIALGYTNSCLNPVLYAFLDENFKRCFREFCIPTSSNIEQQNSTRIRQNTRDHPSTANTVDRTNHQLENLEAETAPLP
Sphingosine 1-phosphate receptor 1, sequence (P21453 whole entry): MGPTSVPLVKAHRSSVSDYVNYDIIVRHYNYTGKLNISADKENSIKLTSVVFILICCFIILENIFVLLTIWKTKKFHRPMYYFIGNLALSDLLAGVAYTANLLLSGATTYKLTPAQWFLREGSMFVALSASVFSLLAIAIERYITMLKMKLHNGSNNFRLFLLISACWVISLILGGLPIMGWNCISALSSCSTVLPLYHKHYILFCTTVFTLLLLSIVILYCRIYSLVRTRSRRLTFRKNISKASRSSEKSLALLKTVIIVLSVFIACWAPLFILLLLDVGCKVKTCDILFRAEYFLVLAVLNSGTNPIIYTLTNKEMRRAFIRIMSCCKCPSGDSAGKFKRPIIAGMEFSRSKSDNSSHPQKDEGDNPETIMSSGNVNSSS
Sphingosine 1-phosphate receptor 2, sequence (O95136 whole entry): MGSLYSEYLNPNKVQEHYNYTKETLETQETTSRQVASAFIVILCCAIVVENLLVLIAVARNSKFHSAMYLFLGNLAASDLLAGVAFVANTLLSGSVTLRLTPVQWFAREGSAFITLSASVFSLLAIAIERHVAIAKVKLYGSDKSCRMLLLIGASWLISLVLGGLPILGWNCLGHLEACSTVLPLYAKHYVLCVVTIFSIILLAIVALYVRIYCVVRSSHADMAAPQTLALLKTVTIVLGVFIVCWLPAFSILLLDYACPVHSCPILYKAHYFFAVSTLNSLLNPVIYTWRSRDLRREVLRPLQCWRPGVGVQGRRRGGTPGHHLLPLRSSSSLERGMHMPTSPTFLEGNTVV
Luciferin 4-monooxygenase, sequence (P08659 whole entry): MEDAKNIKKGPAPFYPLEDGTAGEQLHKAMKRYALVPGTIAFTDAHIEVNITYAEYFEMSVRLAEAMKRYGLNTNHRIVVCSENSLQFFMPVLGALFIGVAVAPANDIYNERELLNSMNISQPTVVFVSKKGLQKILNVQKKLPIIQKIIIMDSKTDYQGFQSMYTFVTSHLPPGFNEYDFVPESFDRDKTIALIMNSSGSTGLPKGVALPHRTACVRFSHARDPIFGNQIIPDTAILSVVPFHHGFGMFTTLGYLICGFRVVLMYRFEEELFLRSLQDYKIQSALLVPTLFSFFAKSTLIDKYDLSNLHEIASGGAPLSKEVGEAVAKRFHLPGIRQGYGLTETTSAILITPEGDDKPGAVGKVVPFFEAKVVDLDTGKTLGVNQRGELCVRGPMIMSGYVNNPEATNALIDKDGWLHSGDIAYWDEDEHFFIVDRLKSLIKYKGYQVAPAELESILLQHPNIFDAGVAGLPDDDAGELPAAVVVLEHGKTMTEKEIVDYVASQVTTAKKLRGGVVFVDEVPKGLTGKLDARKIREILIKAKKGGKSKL
Sphingosine 1-phosphate receptor 3, sequence (Q99500 whole entry): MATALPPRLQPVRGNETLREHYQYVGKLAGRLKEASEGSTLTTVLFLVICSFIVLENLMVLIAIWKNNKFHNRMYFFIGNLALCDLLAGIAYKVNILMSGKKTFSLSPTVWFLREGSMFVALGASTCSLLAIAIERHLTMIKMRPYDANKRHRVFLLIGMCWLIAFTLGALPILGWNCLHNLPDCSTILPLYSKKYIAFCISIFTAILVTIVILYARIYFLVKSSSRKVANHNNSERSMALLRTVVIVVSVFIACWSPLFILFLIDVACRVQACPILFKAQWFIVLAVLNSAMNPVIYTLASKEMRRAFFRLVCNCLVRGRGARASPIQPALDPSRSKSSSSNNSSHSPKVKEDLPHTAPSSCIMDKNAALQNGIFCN
Lytic switch protein BZLF1, sequence (P03206 whole entry): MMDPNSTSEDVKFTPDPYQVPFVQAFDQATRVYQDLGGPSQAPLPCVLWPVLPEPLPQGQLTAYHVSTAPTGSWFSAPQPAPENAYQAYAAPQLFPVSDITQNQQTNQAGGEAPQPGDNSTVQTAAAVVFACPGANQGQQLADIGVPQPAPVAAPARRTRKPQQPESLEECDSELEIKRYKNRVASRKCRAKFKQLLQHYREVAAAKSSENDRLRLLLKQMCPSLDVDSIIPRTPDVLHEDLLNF
Epstein-Barr nuclear antigen 1, sequence (P03211 whole entry): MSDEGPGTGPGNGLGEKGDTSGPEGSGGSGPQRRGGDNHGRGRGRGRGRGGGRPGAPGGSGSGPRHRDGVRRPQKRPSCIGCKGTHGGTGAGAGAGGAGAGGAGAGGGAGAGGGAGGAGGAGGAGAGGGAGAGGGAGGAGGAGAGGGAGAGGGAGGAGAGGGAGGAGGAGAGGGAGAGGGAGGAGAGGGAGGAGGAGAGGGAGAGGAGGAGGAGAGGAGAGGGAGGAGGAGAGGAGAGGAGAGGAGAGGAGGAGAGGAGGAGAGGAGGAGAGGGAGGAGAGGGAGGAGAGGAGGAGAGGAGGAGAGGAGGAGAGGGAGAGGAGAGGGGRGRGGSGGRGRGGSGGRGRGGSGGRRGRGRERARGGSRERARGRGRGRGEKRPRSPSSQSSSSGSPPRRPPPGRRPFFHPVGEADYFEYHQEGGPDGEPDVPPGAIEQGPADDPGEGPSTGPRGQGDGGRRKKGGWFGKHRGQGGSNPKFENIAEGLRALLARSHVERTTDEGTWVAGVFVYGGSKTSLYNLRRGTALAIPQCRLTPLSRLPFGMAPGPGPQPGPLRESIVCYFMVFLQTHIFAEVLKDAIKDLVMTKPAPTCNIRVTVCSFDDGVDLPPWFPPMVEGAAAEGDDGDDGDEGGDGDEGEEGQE

With `O=C(N/N=C/c1ccc(O)cc1)Nc1cccc2nsnc12` the CC50 [1] was > 50 µM (active), the IC50 [2] was 2.51 µM (active) and the EC50 [3] was 0.356 µM (active). For the same compound, the EC50 [4] was 10.8 µM (active) and the IC50 [5] was 63.5 µM (active).

For `Cc1ccc(-c2cc(C(=O)NC3CCCCC3)no2)cc1`, the EC50 [6] was > 10 µM (not active), the EC50 [7] was > 50 µM (not active) and the EC50 [8] was 0.194 µM (active).

For `COc1ccc2nc(-c3ccc(N)cc3)[nH]c2c1`, the EC50 [9] was 0.38 µM (active) and the AC50 [10] was 35.1 µM (active).

For `COC(=O)c1ccc2c(=O)n(CCCC(=O)N3CCN(c4cccc(Cl)c4)CC3)c(=S)[nH]c2c1`, the IC50 (Estrogen receptor) was 18.7 µM (not active).

In the case of `COc1ccc2oc(C(=O)Nc3nccs3)c(C)c2c1`, the EC50 [11] is reported as > 67.5 µM (inactive), the IC50 [12] is reported as 21 µM (not active) and the IC50 [13] is reported as > 111 µM (not active).

For `Cc1ccc(S(=O)(=O)Nc2cccc3cccnc23)c([N+](=O)[O-])c1`, the EC50 (Beta-galactosidase [14]) was > 40 µM (inactive), the EC50 (Streptokinase A) was > 150 µM (not active) and the EC50 [15] was > 120 µM (not active). For the same compound, the CC50 [16] was 5.64 µM (active), the EC50 [17] was > 32 µM (inactive) and the CC50 (Vero [18]) was 5.79 µM (active). The EC50 (Mu-type opioid receptor) was > 32 µM (inactive), the EC50 (Streptococcus) was 17.4 µM (active) and the IC50 [19] was 8.21 µM (active). The EC50 (Beta-galactosidase [20]) was > 31.5 µM (inactive), the CC50 (Vero [21]) was 7.85 µM (active) and the IC50 [22] was > 32 µM (inactive). For the same compound, the IC50 [23] was over 32 µM, the IC50 (Vero [24]) was 18.4 µM (active) and the EC50 [25] was 0.707 µM (active). The IC50 [26] was 5.55 µM (active).
